For assay [1], the target named is T1, TRK A, B & C kinase.
T1 construct: fused on or other part: Carna's Trk kinases are usually GST-tagged cytoplasmic domains
The experiment in a line: TRK A, B & C kinase assay (ADP-Glo / HTRF KinEASE-TK). The format is biochemical. The following applies: ADP-Glo or HTRF KinEASE-TK kit, isoform not specified, read-out: IC50 (nM) Enzymatic assay. The method, boiled down: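 ADP-Glo: TrkA/B/C (0.4/0.5/3 ng/ul) with poly(Glu,Tyr), 1 h at 30° C, luminescence readout. HTRF: TRKA/B/C (0.3/0.1/0.03 ng/ul) at ATP 14.7/4.77/25.6 uM with TK-substrate, compound 0–100 nM for 40 min at RT, then detection by 665/620 ratio. Both give IC50 by curve fit.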
A general note: ADP-Glo turns the ADP formed in a reaction into a luminescent signal.

For assay [2], the system named is TF-1 cells. Briefly: Cell proliferation assay (TF-1). As to conditions: 10 ng/ml human β-NGF, 72 hours exposure, read-out: IC50 (nM) Cell-based assay (TF-1). As to the method:
Doxorubicin was purchased from Sigma Aldrich (D1515). All compounds were diluted in DMSO (Sigma Aldrich, D2650). AlamarBlue® cell viability reagent was purchased from Thermo Scientific (88952). CellTiter 96® AQueous One Solution Cell proliferation assay was purchased from Promega. KM12-luc cells were obtained from JCRB (National Institute of Health Sciences, Tokyo, Japan). They were maintained in DMEM medium (GIB-11965-118) supplemented with 10% fetal bovine serum (Gibco, 16000-044) and MEM Non-Essential Amino Acids Solution (Thermo Scientific, 11140-050). TF-1 cells were obtained from ATCC. They were maintained in RPMI medium (GIB-A10491) supplemented with 10% fetal bovine serum (Gibco, 16000-044), GM-CSF (Thermo Scientific, 11140-050), and β-NGF (R&D systems). Trypsin/EDTA was purchased from Gibco (GIB-25300-054, 0.05%). 96-well plates were purchased from Corning Inc.
The proliferation assay was performed for Chemical Compounds 1-61 s in media supplemented with 10% FBS, using AlamarBlue® cell viability reagent or CellTiter 96® AQueous One Solution Cell proliferation assay kit. Cells were cultured in humidified 37° C. incubator with 5% CO2. To evaluate the antiproliferation activity of compounds, TF-1 cells were adjusted to GM-CSF free media (RPMI, 10% FBS, and 1% penicillin-streptomycin) for 16 hr and were seeded in 96-well plates at 30,000 cells/well with medium (RPMI, 10% FBS, 1% penicillin-streptomycin and 10 ng/ml human β-NGF). KM12-luc were seeded at 10,000 cells per well into 96-well plates. After overnight incubation, serial dilutions of compounds were added to triplicate wells, and cells were exposed for 72 hours. The final concentration of DMSO was adjusted to 0.5% in media. Quantitation of cell growth was assessed using two kinds of reagent. 20 ul of AlamarBlue® reagent in an amount equal to 10% of the culture volume was added to each well and were incubated in humidified 37° C. incubator with 5% CO2 for 2 hr. Otherwise, 20 ul of CellTiter 96® reagent was added to each well and were incubated in the same conditions as previously described. Data were plotted, and GI50 values were calculated using GraphPad software. Table 1 below includes the results of the assays.

For assay [3], the system named is KM12-luc cells. The experiment in a line: Cell proliferation assay (KM12). The following applies: 72 hours exposure, read-out: IC50 (nM) Cell-based assay (KM12). In a few lines: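 KM12-luc cells were seeded at 10,000/well. TF-1 cells were first held 16 hr without GM-CSF, then seeded at 30,000/well with 10 ng/ml human β-NGF. Cells were exposed in triplicate to serial dilutions for 72 h in 10% FBS with 0.5% DMSO at 37 °C, read by AlamarBlue or CellTiter 96 for 2 hr, and GI50 was fitted.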

SMILES strings stand for the structures.

For 16 compounds, IC50 results are on record in patent US9701681B2, “Fused ring heteroaryl compounds and their use as Trk inhibitors” (CMG Pharmaceutical Co., Ltd., priority 2014, dated 2017).

Regarding `Cc1noc(C)c1-c1cnn2ccc(N3CCCC3c3cc(F)ccc3F)nc12` (stereo not drawn) [Chemical Compound 31, 4-(5-(2-(2,5-difluorophenyl)pyrrolidin-1-yl)pyrazolo[1,5-a]pyrimidin-3-yl)-3,5-dimethylisoxazole], the IC50 (usually the concentration needed to halve the response being measured) in assay [1] is less than 100 nM; in assay [2], less than 1000 nM; in assay [3], less than 1000 nM.

Consider `Cc1nnc(-c2cnn3ccc(N4CCCC4c4cc(F)ccc4F)nc23)[nH]1` (stereo not drawn) [Chemical Compound 32, 5-(2-(2,5-difluorophenyl)pyrrolidin-1-yl)-3-(5-methyl-1H-1,2,4-triazol-3-yl)pyrazolo[1,5-a]pyrimidine], for which the IC50 in assay [1] is less than 10 nM; in assay [2] it was less than 100 nM; in assay [3], less than 100 nM.

For the compound `CCNC(=O)/C=C/c1cnn2ccc(N3CCCC3c3cncc(F)c3)nc12` (stereo not drawn) [Chemical Compound 38, (E)-N-ethyl-3-(5-(2-(5-fluoropyridin-3-yl)pyrrolidin-1-yl)pyrazolo[1,5-a]pyrimidin-3-yl)acrylamide], the IC50 in assay [1] is less than 10 nM; in assay [2] it was less than 1000 nM; in assay [3] it was less than 1000 nM.

In the case of `O=C(/C=C/c1cnn2ccc(N3CCCC3c3cncc(F)c3)nc12)NC1CC1` (stereo not drawn) [Chemical Compound 39, (E)-N-cyclopropyl-3-(5-(2-(5-fluoropyridin-3-yl)pyrrolidin-1-yl)pyrazolo[1,5-a]pyrimidin-3-yl)acrylamide], the 50% inhibitory concentration (IC50) was less than 10 nM in assay [1], less than 1000 nM in assay [2] and less than 1000 nM in assay [3].

In the case of `CN(C)C(=O)/C=C/c1cnn2ccc(N3CCCC3c3cncc(F)c3)nc12` (stereo not drawn) [Chemical Compound 40, (E)-3-(5-(2-(5-fluoropyridin-3-yl)pyrrolidin-1-yl)pyrazolo[1,5-a]pyrimidin-3-yl)-N,N-dimethylacryl-amide], the values for the IC50 in assay [1], in assay [2] and in assay [3] were less than 10 nM, less than 100 nM and less than 1000 nM, respectively.

On to `CCNC(=O)/C=C/c1cnn2ccc(N3CCCC3c3cc(F)ccc3F)nc12` (stereo not drawn) [Chemical Compound 41, (E)-3-(5-(2-(2,5-difluorophenyl)pyrrolidin-1-yl)pyrazolo[1,5-a]pyrimidin-3-yl)-N-ethylacrylamide], for which the values for the IC50 in assay [1], in assay [2] and in assay [3] were less than 10 nM, less than 100 nM and less than 100 nM, respectively.

For `CC(C)NC(=O)/C=C/c1cnn2ccc(N3CCCC3c3cc(F)ccc3F)nc12` (stereo not drawn) [Chemical Compound 42, (E)-3-(5-(2-(2,5-difluorophenyl)-pyrrolidin-1-yl)pyrazolo[1,5-a]pyrimidin-3-yl)-N-isopropylacrylamide], the IC50 is less than 10 nM in assay [1], less than 100 nM in assay [2] and less than 100 nM in assay [3].

In the case of `O=C(/C=C/c1cnn2ccc(N3CCCC3c3cc(F)ccc3F)nc12)NC1CC1` (stereo not drawn) [Chemical Compound 43, (E)-N-cyclopropyl-3-(5-(2-(2,5-difluorophenyl)pyrrolidin-1-yl)pyrazolo[1,5-a]pyrimidin-3-yl)acrylamide], the IC50 in assay [1] is less than 10 nM; in assay [2], less than 100 nM; in assay [3] it was less than 100 nM.

Consider `CC(C)(C)NC(=O)/C=C/c1cnn2ccc(N3CCCC3c3cc(F)ccc3F)nc12` (stereo not drawn) [Chemical Compound 44, (E)-N-tert-butyl-3-(5-(2-(2,5-difluorophenyl)pyrrolidin-1-yl)pyrazolo-[1,5-a]pyrimidin-3-yl)acrylamide], for which the figures for the concentration for half-maximal inhibition (IC50) in assay [1], in assay [2] and in assay [3] were less than 10 nM, less than 100 nM and less than 100 nM, respectively.

Consider `CN(C)C(=O)/C=C/c1cnn2ccc(N3CCCC3c3cc(F)ccc3F)nc12` (stereo not drawn) [Chemical Compound 45, (E)-3-(5-(2-(2,5-difluorophenyl)pyrrolidin-1-yl)pyrazolo[1,5-a]pyrimidin-3-yl)-N,N-dimethylacrylamide], for which the 50% inhibitory concentration (IC50) is less than 10 nM in assay [1], less than 100 nM in assay [2] and less than 100 nM in assay [3].

Take `COCCNC(=O)/C=C/c1cnn2ccc(N3CCCC3c3cc(F)ccc3F)nc12` (stereo not drawn) [Chemical Compound 46, (E)-3-(5-(2-(2,5-difluorophenyl)pyrrolidin-1-yl)pyrazolo[1,5-a]pyrimidin-3-yl)-N-(2-methoxyethyl)-acrylamide]: the 50% inhibitory concentration (IC50) in assay [1] is less than 10 nM; in assay [2], less than 100 nM; in assay [3] it was less than 100 nM.

On to `O=C(/C=C/c1cnn2ccc(N3CCCC3c3cc(F)ccc3F)nc12)N1CC(O)C1` (stereo not drawn) [Chemical Compound 47, (E)-3-(5-(2-(2,5-difluorophenyl)pyrrolidin-1-yl)pyrazolo[1,5-a]pyrimidin-3-yl)-1-(3-hydroxyazetidin-1-yl)prop-2-en-1-one], for which the IC50 in assay [1] was less than 10 nM; in assay [2], less than 100 nM; in assay [3] it was less than 100 nM.

In the case of `O=C(/C=C/c1cnn2ccc(N3CCC[C@@H]3c3cc(F)ccc3F)nc12)NCCO` [Chemical Compound 48, (R,E)-3-(5-(2-(2,5-difluorophenyl)pyrrolidin-1-yl)pyrazolo[1,5-a]pyrimidin-3-yl)-N-(2-hydroxyethyl)-acrylamide], the IC50 in assay [1] was less than 10 nM; in assay [2], less than 100 nM; in assay [3], less than 100 nM.

On to `O=C(/C=C/c1cnn2ccc(N3CCC[C@@H]3c3cc(F)ccc3F)nc12)N1CCOCC1` [Chemical Compound 49, (R,E)-3-(5-(2-(2,5-difluorophenyl)pyrrolidin-1-yl)pyrazolo[1,5-a]pyrimidin-3-yl)-1-morpholinoprop-2-en-1-one], for which the concentration for half-maximal inhibition (IC50) in assay [1] is less than 10 nM; in assay [2], less than 10 nM; in assay [3], less than 100 nM.

With `O=C(/C=C/c1cnn2ccc(N3CCC[C@@H]3c3cc(F)ccc3F)nc12)N1CCNCC1` [Chemical Compound 50, (R,E)-3-(5-(2-(2,5-difluorophenyl)pyrrolidin-1-yl)pyrazolo[1,5-a]pyrimidin-3-yl)-1-(piperazin-1-yl)prop-2-en-1-one], the IC50 is less than 10 nM in assay [1], less than 100 nM in assay [2] and less than 10 nM in assay [3].

Regarding `O=C(C#Cc1cnn2ccc(N3CCCC3c3cc(F)ccc3F)nc12)N1CCOCC1` (stereo not drawn) [Chemical Compound 61, 3-(5-(2-(2,5-difluorophenyl)pyrrolidin-1-yl)pyrazolo[1,5-a]pyrimidin-3-yl)-1-morpholinoprop-2-yn-1-one], the 50% inhibitory concentration (IC50) in assay [1] is less than 10 nM; in assay [2], less than 100 nM; in assay [3] it was less than 100 nM.
